According to the supplement of paper PMC10307832:

What was measured:
Assay in all cases: relative viability (nuclei count vs DMSO), 5 days (fraction); higher = more cells survive
[1] = compound: C=CC(=O)Nc1cc(-n2c(=O)ccc3cnc4ccc(-c5ccc(NS(C)(=O)=O)cc5)cc4c32)ccc1C [BMX-IN-1] + Nc1ncn([C@H]2C[C@H](O)[C@@H](CO)O2)c(=O)n1 [Decitabine] (partner 2 µM)
Outline: (§1)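 Relative viability divides the nuclei count in treated wells by that in vehicle wells. Lung cancer cell lines were seeded in 1536-well plates, dosed by pin tool the next day, and fixed and stained after 5 days in one step with final 0.05% Triton X-100, 1% formaldehyde and 1 ug/ml Hoechst. Dosing was a single drug or a fixed anchor-drug dose plus five library-drug doses (not always all listed) in √10 steps, and values are medians of duplicate plates imaged at 4×.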

[2] = compound: C=CC(=O)N1CCC[C@@H](n2nc(-c3ccc(Oc4ccccc4)cc3)c3c(N)ncnc32)C1 [Ibrutinib] + CS(=O)(=O)CCNCc1ccc(-c2ccc3ncnc(Nc4ccc(OCc5cccc(F)c5)c(Cl)c4)c3c2)o1 [Lapatinib] (partner 2 µM)
Outline: as §1

[3] = compound: C=CC(=O)Nc1cc(-n2c(=O)ccc3cnc4ccc(-c5ccc(NS(C)(=O)=O)cc5)cc4c32)ccc1C [BMX-IN-1] + Cc1cc(Nc2cc(N3CCN(C)CC3)nc(Sc3ccc(NC(=O)C4CC4)cc3)n2)n[nH]1 [Tozasertib] (partner 0.1 µM)
Outline: as §1

[4] = compound: C=CCc1cccc(/C=N/NC(=O)CN2CCN(Cc3ccccc3)CC2)c1O [PAC-1] + O=C(CCCCCCC(=O)Nc1ccccc1)NO [Vorinostat] (partner 1 µM)
Outline: as §1

Cell Line | relative viability ([1]; first compound 0.02 µM) | relative viability ([1]; first compound 0.2 µM) | relative viability ([1]; first compound 0.6325 µM) | relative viability ([1]; first compound 2 µM) | relative viability ([2]; first compound 0.005 µM) | relative viability ([2]; first compound 0.01581 µM) | relative viability ([2]; first compound 0.05 µM) | relative viability ([2]; first compound 0.1581 µM) | relative viability ([2]; first compound 0.5 µM) | relative viability ([3]; first compound 0.02 µM) | relative viability ([3]; first compound 0.2 µM) | relative viability ([3]; first compound 0.6325 µM) | relative viability ([3]; first compound 2 µM) | relative viability ([4]; first compound 0.02 µM) | relative viability ([4]; first compound 0.06325 µM) | relative viability ([4]; first compound 0.2 µM) | relative viability ([4]; first compound 2 µM)
NCI-H1734 | 0.534 | 0.568 | 0.522 | 0.831 | 0.843 | 1.01 | 1.14 | 1.19 | 1.04 | 0.292 | 0.285 | 0.256 | 0.229 | 0.825 | 0.792 | 0.767 | 0.895
NCI-H1755 | 0.644 | 0.683 | 0.795 | 0.758 | – | 0.991 | 1.08 | 0.981 | 1.05 | 0.493 | 0.578 | 0.577 | 0.519 | 0.777 | 0.787 | 0.774 | 0.718
NCI-H1793 | 0.45 | 0.535 | 0.471 | 0.589 | – | 0.796 | 0.819 | 0.58 | 0.577 | 0.311 | 0.285 | 0.311 | 0.303 | 0.653 | 0.814 | 0.741 | 0.894
NCI-H1915 | 0.282 | 0.272 | 0.284 | 0.273 | – | 0.987 | 1.01 | 1.06 | 1.06 | 0.438 | 0.586 | 0.504 | 0.445 | 0.507 | 0.506 | 0.427 | 0.562
NCI-H1944 | 0.459 | 0.402 | 0.481 | 0.426 | 0.818 | 0.818 | 0.771 | 0.7 | 0.844 | 0.279 | 0.254 | 0.236 | 0.244 | 0.537 | 0.555 | 0.542 | 0.642
NCI-H1975 | 0.362 | 0.345 | 0.42 | 0.417 | 0.899 | 0.772 | 0.837 | 0.79 | 0.517 | 0.958 | 1.1 | 0.792 | 0.695 | 0.71 | 0.713 | 0.765 | 0.77
NCI-H1993 | 0.678 | 0.525 | 0.53 | 0.631 | 0.766 | 0.576 | 0.856 | – | 0.764 | 0.624 | 0.652 | 0.585 | 0.498 | 0.821 | 0.895 | 0.658 | 0.652
NCI-H2009 | 0.381 | 0.402 | 0.41 | 0.368 | 0.952 | 0.945 | 0.94 | 0.65 | 0.988 | 0.826 | 0.853 | 0.781 | 0.712 | 0.669 | 0.685 | 0.732 | 0.741
NCI-H2023 | 0.236 | 0.247 | 0.223 | 0.295 | 0.622 | 0.711 | 0.772 | 0.818 | 0.868 | 0.363 | 0.43 | 0.434 | 0.333 | 0.741 | 0.605 | 0.495 | 0.474
NCI-H2085 | 0.553 | 0.595 | 0.564 | 0.597 | 0.651 | 0.727 | 0.75 | 0.752 | 0.631 | 0.873 | 0.754 | 0.794 | 0.734 | 0.791 | 0.789 | 0.737 | 0.822
NCI-H2087 | 0.29 | 0.343 | 0.239 | 0.325 | 1.09 | 1.17 | 0.986 | 1.03 | 1.11 | 0.244 | 0.24 | 0.344 | 0.263 | 0.678 | 0.665 | 0.722 | 0.858
NCI-H2126 | 0.522 | 0.515 | 0.59 | 0.601 | – | 0.726 | 0.756 | 0.741 | 0.706 | 1.03 | 0.947 | 0.867 | 0.829 | 0.733 | 0.785 | 0.803 | 0.763
NCI-H2170 | 0.454 | 0.499 | 0.469 | 0.495 | 0.247 | 0.258 | 0.245 | 0.25 | 0.26 | 0.771 | 0.779 | 0.625 | 0.777 | 0.894 | 0.809 | 0.795 | 0.775
NCI-H2347 | 0.647 | 0.678 | 0.608 | 0.75 | 0.962 | 0.899 | 0.897 | 0.555 | 0.861 | 0.518 | 0.471 | 0.585 | 0.537 | 0.589 | 0.593 | 0.606 | 0.657
NCI-H2405 | 0.702 | 0.723 | 0.851 | 0.716 | 0.942 | 1.08 | 0.973 | – | 1.09 | 0.808 | 0.76 | 0.861 | 0.747 | 1.05 | 1.12 | 1.14 | 1.15
NCI-H3122 | 0.421 | 0.33 | 0.548 | 0.514 | 0.953 | 1.03 | 1.04 | 0.948 | 0.99 | 0.516 | 0.399 | 0.461 | 0.117 | 1.01 | 0.972 | 0.787 | 0.83
PC-3 [JPC-3] | 0.84 | 0.754 | 0.816 | 0.885 | 0.389 | 0.45 | 0.439 | 0.413 | 0.444 | 1.02 | 1.02 | 1.08 | 0.951 | 0.82 | 0.915 | 1.06 | 0.832
PC-14 | 0.18 | 0.227 | 0.292 | 0.305 | 0.308 | 0.302 | 0.285 | 0.322 | 0.327 | 0.672 | 0.658 | 0.605 | 0.571 | 0.816 | 0.764 | 0.629 | 0.743
RERF-LC-KJ | 0.788 | 0.692 | 0.851 | 0.758 | 0.831 | 0.931 | 0.937 | 0.888 | 0.785 | 0.566 | 0.642 | 0.472 | 0.435 | 0.715 | 0.67 | 0.475 | 0.711
